Read-outs that look alike come from different tables or passages of the source. *1 amine or outer side, *2 acyl side, *3 side chain or, on linkers, in order; H or OH if unused. Where a SMILES comes first, the peptide text is derived from it. [ ]: non-standard residue; d: D form. The star is where a group is joined. X1 = O=C(C[C@H](N[*:1])c1ccc(O)cc1)[*:2]; dVal(3-OH) = CC(C)(O)[C@@H](N)C(=O)O; ΔIle(E) = CC/C(C)=C(/N)C(=O)O; Isovaleryl = CC(C)CC(=O)*; Agmatine = N=C(N)NCCCCN*; NMeA = CN[C@@H](C)C(=O)O; ΔVal = CC(C)=C(N)C(=O)O
Key:
[1] = test system: Staphylococcus aureus (DSM 1104) biofilm; assay: Crystal violet biofilm inhibition assay, S. aureus; format: cell-based
Method: Selected azaphilones Rub C and W, Rut A and B were tested against the formation of biofilms in Staphylococcus aureus (DSM 1104). S. aureus DSM 1104 from a −20 °C stock was precultured in 25 mL CASO (casein-peptone soymeal-peptone) medium in a 250 mL flask at 37 °C with 100 rpm for 20 h. The OD600 of the culture solution was adjusted to 0.001 McFarland standard and incubated in 96-well microtiter plates (TPP tissue culture ref.no 92196, Switzerland) for 18 h at 37 °C with 150 μL of serially diluted test […]
(§1) compounds (250–2 μg/mL) in CASO with 4% glucose broth. The inhibition of biofilm formation was evaluated by staining with 150 μL of 0.1% crystal violet (CV; Thermo Fisher) following previously established protocols. In the next step, the supernatant of the 96-well plate was discarded and the wells were rinsed once with PBS buffer. The remaining biofilms were stained at room temperature for 15 min, rinsed three times with PBS buffer, and finally dissolved in 150 μL ethanol (95%). The absorbance of the resulting solution at 530 nm was quantified using a plate reader (Synergy 2, BioTek). Methanol (2.5%) and microporenic acid A (MAA) (250–2 μg/mL) were used as negative and positive controls. Standard deviations (SD) of two repeats with duplicates were 10% or less. […]
μg/mL) were used as negative control and positive control, respectively. The assay was conducted for […]
(§2) Table S2: Selected azaphilones were tested against the formation of biofilm of S. aureus, P. aeruginosa as well as C. auris and dispersal effect on preformed biofilm of S. aureus compared to solvent control (= 0%), respectively. SDs are shown as ±SD.
(§3) Compounds Strains Concentrations [µg/mL] […]

[2] = test system: preformed S. aureus biofilm; assay: Dispersal effect on preformed S. aureus biofilm; format: cell-based, Staphylococcus aureus
Method: as §1, §2, §3

[3] = test system: mouse fibroblasts L929 [ACC 2]; assay: MTT cytotoxicity assay, L929; format: cell-based
Method: (§4) Cytotoxic effects were evaluated on human endocervical adenocarcinoma KB-3-1 [ACC 158] cells and mouse fibroblasts L929 [ACC 2] upon treatment with Rub C, W, and Rut A and B within the concentration range of 37 μg/mL–0.63 ng/mL. The half-maximum inhibitory concentrations (IC50) were determined by standard MTT assays as reported previously (see the Supplementary Material for detailed information). The IC50 values of Rub A and Z have currently been reported. […]
(§5) KB-3-1 (ACC 158) cervix carcinoma as well as L929 (ACC 2) mouse fibroblasts were cultured under standard cell culture conditions (37 °C, 5% CO2, 95% humidified atmosphere). The cells were maintained in high glucose DMEM containing 10% fetal bovine serum and 100 U/mL penicillin and streptomycin (Gibco, Thermo Fisher Scientific, Waltham, USA). Cell lines were serially passaged after trypsinization, using 0.05% trypsin / 0.02% EDTA solution. The cultures were routinely monitored for potential contamination, and only mycoplasma free cultures were used. The test compounds were investigated for their anti-proliferative effect on cell lines, using the 3-(4,5-dimethylthiazol-2-yl)-2,5-diphenyltetrazolium bromide (MTT) based cell viability assay. Cells were seeded in 96 well microtiter plates (Sarstedt, Germany) with a cell density of 0.05 * 10^6 cells per mL and 100 μL per well and were incubated for 24 h. […]
(§6) Absorbances at 570 nm and 630 nm were measured with a plate reader (Tecan, Männedorf, canton of Zürich, Switzerland). Background absorbance (630 nm) was subtracted from the formazan signal (570 nm). The resulting absorbance is directly proportional to the amount of viable cells. The control was normalized to 100% viable cells, and the viability of cells treated with the test compounds was calculated accordingly. IC50 values were calculated based on a sigmoidal fit model using GraphPad Prism. Means and SD were calculated from at least four independent experiments. […]

[4] = test system: human endocervical adenocarcinoma KB-3-1 [ACC 158] cells; conditions: second value of the cell; cited from earlier work
[5] = test system: human endocervical adenocarcinoma KB-3-1 [ACC 158] cells; assay: MTT cytotoxicity assay, KB-3-1; format: cell-based; conditions: KB 3-1
Method: as §4, §5, §6

[6] = test system: mouse fibroblasts L929 [ACC 2]; conditions: second value of the cell; cited from earlier work
[7] = test system: Pseudomonas aeruginosa (PA 14) DSM 19882 biofilm; assay: Crystal violet biofilm inhibition assay, P. aeruginosa; format: cell-based; conditions: assay conducted once
Method: Selected azaphilones Rub C and W, Rut A and B were tested against the formation of biofilms in Pseudomonas aeruginosa (PA 14) DSM 19882. Bacterial strain was precultured in 25 mL LB medium (Luria - Bertani Broth) with a 250 mL flask at 37 °C with shaking 100 rpm overnight. The turbidity of the baterial solution was measured and diluted to match the turbidity of a 0.1 McFarland standard in M63 medium, which is supplemented with magnesium sulfate, glucose and casamino acids as previously described. The compounds were added into 150 μL bacterial solution at the concentration (250–2 μg/mL) then the solution was added in U-bottom 96 well plate (Falcon ref.no 351177, Thermo Fisher Scientific). The plates were incubated at 37 °C at 150 rpm for 24 h and biofilms were established at the air liquid interface. The plates were rinsed once by using PBS buffer, the biofilms were stained by 150 μL 0.1% CV at room temperature for 15 min and then rinsed two times by using PBS buffer. The absorbance was quantified with the plate reader (Synergy 2, BioTek) at 550 nm using ethanol (95%). Methanol (2.5 %) and myxovalargin A (250 –2 μg/mL) were used as negative control and positive control, respectively. The assay was conducted for […]
as §2, §3

CC(C)=CCC/C(C)=C/CC/C(C)=C/CC/C(C)=C/CO[C@@H](C(=O)O)[C@H](CC(=O)O)C(=O)O [MAA, microporenic acid A, reference compound]
inhibition of S. aureus biofilm formation compared to solvent control (= 0%) ([1]; 2 µg/mL): / ((/) no activity)
inhibition of S. aureus biofilm formation compared to solvent control (= 0%) ([1]; 3.9 µg/mL): 45 ±10%
inhibition of S. aureus biofilm formation compared to solvent control (= 0%) ([1]; 7.8 µg/mL): 77 ±10%
inhibition of S. aureus biofilm formation compared to solvent control (= 0%) ([1]; 15.6 µg/mL): 83 ±6%
inhibition of S. aureus biofilm formation compared to solvent control (= 0%) ([1]; 31.3 µg/mL): 86 ±4%
inhibition of S. aureus biofilm formation compared to solvent control (= 0%) ([1]; 62.5 µg/mL): 86 ±4%
inhibition of S. aureus biofilm formation compared to solvent control (= 0%) ([1]; 125 µg/mL): 85 ±5%
inhibition of S. aureus biofilm formation compared to solvent control (= 0%) ([1]; 250 µg/mL): 83 ±6%
dispersal effect on preformed biofilm of S. aureus compared to solvent control (= 0%) ([2]; 15.6 µg/mL): 33 ±10%
dispersal effect on preformed biofilm of S. aureus compared to solvent control (= 0%) ([2]; 31.3 µg/mL): 54 ±6%
dispersal effect on preformed biofilm of S. aureus compared to solvent control (= 0%) ([2]; 62.5 µg/mL): 60 ±9%
dispersal effect on preformed biofilm of S. aureus compared to solvent control (= 0%) ([2]; 125 µg/mL): 65 ±7%
dispersal effect on preformed biofilm of S. aureus compared to solvent control (= 0%) ([2]; 250 µg/mL): 65 ±4%

C/C(=C\c1csc(C)n1)[C@@H]1C[C@@H]2O[C@]2(C)CCC[C@H](C)[C@H](O)[C@@H](C)C(=O)C(C)(C)[C@@H](O)CC(=O)O1 [Epothilone B, reference compound]
IC50 [3]: 0.17 nM
IC50 [4]: 0.028 nM
IC50 [5]: 0.053 nM
IC50 [6]: 0.031 nM

CC/C(C)=C(/NC(=O)[C@H](NC(=O)[C@H](NC(=O)[C@@H](CCCN=C(N)N)NC(=O)C(NC(=O)[C@@H](NC(=O)C[C@H](NC(=O)[C@H](NC(=O)[C@H](NC(=O)[C@H](C)N(C)C(=O)[C@H](C)NC(=O)C(NC(=O)CC(C)C)=C(C)C)C(C)C)C(C)C)c1ccc(O)cc1)C(C)C)=C(C)C)C(C)C)C(C)C)C(=O)N[C@H](C)C(=O)N[C@@H](C(=O)NCCCCN=C(N)N)C(C)(C)O [Myxovalargin A, myxovalargin A, reference compound] (Isovaleryl-[ΔVal]A[NMeA][dV][dV][X1]V[ΔVal][dR][dV][dV][ΔIle(E)][dA][dVal(3-OH)]-Agmatine)
inhibition of P. aeruginosa biofilm formation compared to solvent control (= 0%) ([7]; 2 µg/mL): / ((/) no activity)
inhibition of P. aeruginosa biofilm formation compared to solvent control (= 0%) ([7]; 3.9 µg/mL): / ((/) no activity)
inhibition of P. aeruginosa biofilm formation compared to solvent control (= 0%) ([7]; 7.8 µg/mL): / ((/) no activity)
inhibition of P. aeruginosa biofilm formation compared to solvent control (= 0%) ([7]; 15.6 µg/mL): / ((/) no activity)
inhibition of P. aeruginosa biofilm formation compared to solvent control (= 0%) ([7]; 31.3 µg/mL): 61%
inhibition of P. aeruginosa biofilm formation compared to solvent control (= 0%) ([7]; 62.5 µg/mL): 59%
inhibition of P. aeruginosa biofilm formation compared to solvent control (= 0%) ([7]; 125 µg/mL): 65%
inhibition of P. aeruginosa biofilm formation compared to solvent control (= 0%) ([7]; 250 µg/mL): 55%

From publication PMC10381533, “Inhibitory Effects of the Fungal Pigment Rubiginosin C on Hyphal and Biofilm Formation in Candida albicans and Candida auris” (Journal of Fungi, 2023)
